Patent US4381301A, “Substituted tricyclic thieno compounds, their synthesis, their use, their compositions and their medicaments” (BYK Gulden Lomberg Chemische Fabrik GmbH, priority 1980, dated 1983)

Columns and labels:
[1] = test system: stomach (Shay rat, gastric ulcers); experiment: Antiulcerogenic (protective) action on the stomach, so-called Shay rat (pylorus ligature + acetylsalicylic acid), ulcer index; type: in vivo; settings: for ED50: Rattus norvegicus, po, peroral administration to rats, 1 hour before pylorus ligature, dose which reduces the ulcer index by 50% compared with control; for dose/action curve (antiulcerogenic action): compound 1 even at 300 mg/kg
Description: (§1) ED50 = dose which reduces the ulcer index by 50% in the treated grou
(§2) compared with the control group
(§3) The antiulcerogenic action was tested in accordance with the method using the so-called Shay rat:
(§4) Rats (female, 180 to 200 g, 4 animals per cage on a high grid) which had been fasted for 24 hours were subjected to ulcer provocation by pylorus ligature (under diethyl ether anaesthesia) and oral administration of 100 mg/10 ml/kg of acetylsalicylic acid. The substances to be tested are administered orally (10 ml/kg) 1 hour before the pylorus ligature. The wound is closed by means of Michel clamps. 4 hours thereafter, the animals are killed under ether anaesthesia by atlas dislocation, and the stomach is removed. The stomach is opened longitudinally and fixed to a cork tile after the amount of gastric juice secreted (volume) has been determined; the number and size (=diameter) of ulcers present are determined with a stereomicroscope with 10-fold magnification. The product of the degree of severity (according to the following rating scale) and the number of ulcers serves as the individual ulcer index. […]
(§5) ______________________________________
(§6) The reduction in the average ulcer index of each treated group compared with that of the control group (=100%) serves as a measure of the antiulcerogenic effect. The ED50 designates the dose which reduces the average ulcer index by 50%.

[2] = as above; type: in vivo; settings: rat, in vivo; LD50 i.v. mice / ED50 p.o. rats; read-out: TQ LD50/ED50 (therapeutic quotient)
Description: as §1, §2, §3, §4, §5, §6

Gastric secretion = experiment: Inhibition of gastric secretion in the Shay rat; type: in vivo; settings: in rats, 4 hours after administration of the antiulcerogenic ED50
Description: ^(+) % inhibition = inhibition of the gastric secretion (in %) 4 hour
after administration of the antiulcerogenic ED50
Rats (female, 180 to 200 g, 4 animals per cage on a high grid) which had been fasted for 24 hours were subjected to ulcer provocation by pylorus ligature (under diethyl ether anaesthesia) and oral administration of 100 mg/10 ml/kg of acetylsalicylic acid. The substances to be tested are administered orally (10 ml/kg) 1 hour before the pylorus ligature. The wound is closed by means of Michel clamps. 4 hours thereafter, the animals are killed under ether anaesthesia by atlas dislocation, and the stomach is removed. The stomach is opened longitudinally and fixed to a cork tile after the amount of gastric juice secreted (volume) has been determined; the number and size (=diameter) of ulcers present are determined with a stereomicroscope with 10-fold magnification. The product of the degree of severity (according to the following rating scale) and the number of ulcers serves as the individual ulcer index.

[3] = Determination of acute toxicity (LD50) in mice; settings: mouse, in vivo; intravenous administration to mice; 7 days observation
Description: LD50 = dose at which 50% of the animals
The toxicity investigations are carried out on female NMRI mice (body weight: 22 to 26 g). The animals (5 animals per dose) receive feed and water ad libitum. Various doses of the substances are administered intravenously (injection time: 1 minute). The observation period is 7 days. The LD50 (the dose at which 50% of the animals die) is determined by means of linear regression.

SMILES	ED50 [1] [mg/kg]	dose/action curve (antiulcerogenic action) ([1]; oral, rats)	selectivity ratio [2]	Gastric secretion % inhibition (Gastric secretion) [%]	LD50 at 168 h [3] [mg/kg]	inhibition effects (antiulcerogenic action) ([1]; 10 mg/kg, oral, rats)
CC1(C)[C@@H](OC(=O)CCC(=O)O)CC[C@]2(C)[C@H]3C(=O)C=C4[C@@H]5C[C@@](C)(C(=O)O)CC[C@]5(C)CC[C@@]4(C)[C@]3(C)CC[C@@H]12 [compound 1, carbenoxolone, reference compound]	~70	very severely flattened so that no substantial increase in the ulcerogenic action can be achieved even at 300 mg/kg	4.1	7		
CN1CCN(CC(=O)N2c3ccccc3NC(=O)c3cscc32)CC1 [compound 2, 9,10-dihydro-4-[(4-methylpiperazin-1-yl)acetyl]-4H-thieno[3,4-b][1,5]benzodiazepin-10-one]	2.5	strictly dependent on the dose	76	35	190	up to 95%
